US6727287B2, “Toluene sulfonamide-containing anti-tumor composition and method of use thereof” (PTS International, Inc., priority 2001, dated 2004)

System: normal (i.e., non-neoplastic) cells
Test: Exposure of normal (non-neoplastic) cells to para-toluene sulfonamide
Conditions: normal (non-neoplastic) cells exposed to the compound

- histopathological changes in normal cells: almost no histopathological changes
Compound: Cc1ccc(S(N)(=O)=O)cc1 [para-toluene sulfonamide]
